The subject of series [1] is Salmonella typhimurium TA98. In words: Ames assay, strain TA98. In kind it is cell-based. As to conditions: for Doses at which precipitate was seen on the plates: Ames plates; for Mutagenic response (dose-related increase in revertant colonies): TA98, with and without metabolic activation; for Cytotoxicity to TA98: under any test condition. On the technique in general: In the Ames test, an excess of revertant colonies over the control signals mutagenicity.

The subject of series [2] is first stage trypanosome infection. The settings on record: i.p. 50 mg/kg/day for five days; cited from earlier work.
Another series has as its system human whole blood. Kind of series: In vitro methemoglobin assay. In kind it is cell-based.
The conditions of series [3]: cited from earlier work.
In a further series the test system is L6 rat myoblasts. As to conditions: read-out: IC50 against the L6 cell line; L6 rat myoblasts in vitro; cited from earlier work.
In a further series the test system is T. b. rhodesiense. The settings on record: read-out: antitrypanosomal IC50; T. b. rhodesiense in vitro; cited from earlier work.
In series [4] the test system is human liver cancer cell lines (HepG2, Hep3B, Huh7, PLC5). In words: Cytotoxicity, panel of four human liver cancer cell lines. In kind it is cell-based. As to conditions: read-out: IC50 values, range over the panel of human liver cells.

The values below come from publication PMC4229492 (International journal of toxicology, 2014).

Structures are written as SMILES. “And” between values parts separate entries of the source, which are not always exact repeats. Equal values may be shown once.

Regarding `COc1ccccc1CN1c2ccc(OC(C)=O)cc2C(C)=CC1(C)C` [OSU-75, 1-(2-methoxybenzyl)-1,2-dihydro-2,2,4-trimethylquinolin-6-yl acetate], in series [1], the “Doses at which precipitate was seen on the plates” value is listed as no less than 500 μg/plate, the “Mutagenic response (dose-related increase in revertant colonies)” value is reported as “did not elicit a mutagenic response” and the “Cytotoxicity to TA98” value is on record as “not cytotoxic”. Also, in series [2], the “Outcome in murine first stage trypanosomiasis model” value is given as “resulted in cures”. Further, in the series with human whole blood (10 μM, 60 min, 37 °C), the Methemoglobin level is listed as 1.2%. The Methemoglobin level with human whole blood (50 μM, 60 min, 37 °C) is recorded as 3.8%.

The term IC50 denotes the concentration at which inhibition is half-maximal. Consider `CC(=O)Oc1ccc2c(c1)C(C)=CC(C)(C)N2Cc1ccccc1` [OSU-40, 1-benzyl-1,2-dihydro-2,2,4-trimethylquinolin-6-yl acetate], for which, in series [3] (preliminary pharmacokinetic studies in rats), the Deacetylation in vivo result is “rapidly deacetylated”. Further, the half-maximal inhibitory concentration (IC50) was 24 µM with L6 rat myoblasts, 0.012 µM with T. b. rhodesiense and 8 to 36 µM in series [4].

Regarding `O=N[O-].[Na+]` [Sodium nitrite, reference compound], the Methemoglobin level in the series with human whole blood (5 mM, 10 min) was 37.4%; in the series on human whole blood (5 mM, 30 min), 41.2%; with human whole blood (5 mM, 60 min), 50.6%.

`CC1=CC(C)(C)N(Cc2ccccc2)c2ccc(O)cc21.Cl` [OSU-36.HCl, 1-benzyl-1,2-dihydro-2,2,4-trimethylquinolin-6-ol hydrochloride]: the OSU-36 plasma concentration result in series [3] (intravenous OSU-36.HCl 2 mg/kg, measured at 60 min, analyte OSU-36) was “approximately 150 ng/mL and ~ 0.53 μM”. The “Doses at which precipitate was seen on the plates” value in series [1] is no less than 500 μg/plate. Moreover, the “Mutagenic response (dose-related increase in revertant colonies)” value in series [1] is “did not elicit a mutagenic response”. In addition, the results for the “Doses cytotoxic to the TA98 strain” value in series [1] (in the absence of metabolic activation) and in series [1] (in the presence of metabolic activation) were no less than 100 μg/plate and no less than 500 μg/plate, respectively. The IC50 was 11 µM with L6 rat myoblasts, 0.013 µM in the series with T. b. rhodesiense and 5.2 to 20 µM in series [4]. Also, in series [2], the “Outcome in murine first stage trypanosomiasis model” value is “resulted in cures”. The Methemoglobin level in the series with human whole blood (10 μM, 60 min, 37 °C) stood at 2.1%; in the series on human whole blood (50 μM, 60 min, 37 °C), 9.3%.

For the compound `CC1=CC(C)(C)N(Cc2ccccc2)c2ccc(Cl)cc21` [JR-I-78, 1-benzyl-6-chloro-2,2,4-trimethyl-1,2-dihydroquinoline], in series [1], the “Mutagenic response (dose-related increase in revertant colonies)” value is on record as “did not elicit a mutagenic response” and the “Cytotoxicity to TA98” value is given as “not cytotoxic”. Further, the Methemoglobin level in the series on human whole blood (10 μM, 60 min, 37 °C) stood at 0.8%. In the series on human whole blood (50 μM, 60 min, 37 °C), the Methemoglobin level is on record as 0.8%.
